We go through 59 compounds from the CATMoS acute toxicity set (Mansouri et al. 2021).

The structures appear in SMILES notation. Several values for one entry are separate records, joined by “and”; a condition that tells them apart may be missing. Equal values may be shown once.

The nature of the series: rat acute oral toxicity. The following applies: in vivo. From the text:
[…]The data set underlying the modeling effort for this project was initially compiled by NICEATM and U.S. EPA’s CCTE. Briefly, LD50 data were collected from rat acute oral systemic toxicity tests, including limit tests, ranges/confidence intervals, and discrete LD50 values. The full data set included 21,200 LD50 entries for 15,688 substances. […] Data were reviewed to ensure that LD50 values with obvious errors in the extracted data such as unit conversion errors (e.g., comma and decimal separator misplacements) were either fixed or removed. After this review, 16,209 LD50 values remained. Many of the chemicals represented had multiple LD50 entries, requiring that a single representative value per Chemical Abstracts Service Registry Number (CASRN) identifier be defined to facilitate modeling efforts. Based on ATWG feedback and to define the representative LD50 as a protective value while accounting for the distribution across multiple LD50s, the median of the lowest quartile was computed using only discrete LD50 values (omitting limit test data and range and confidence interval data). A detailed summary of the data compilation is available online on the NICEATM webpage dedicated to the collaborative modeling project (NTP 2020).
[…][…] For categorical designations, limit test and range/confidence interval LD50 data were integrated wherever possible. As such, the number of chemicals with end point values/calls varies across the modeling end points (Table 3) based on whether chemicals had representative LD50 values and/or other data. If a chemical had both, the representative value was used to determine categorical calls rather than limit test data. Some data were useable only for certain end points and categories depending on the thresholds. For example, ranges that spanned multiple hazard categories were considered only for the binary (very toxic/nontoxic) end points and omitted from rendering a determination for hazard category assignment.
[…]The final data set comprising 11,992 chemicals was split into training and evaluation sets […], respectively. This process was performed semirandomly by ordering chemicals based on the five end points (categorical and continuous LD50 values) and partitioning every fourth record into the evaluation set accordingly. This approach was taken to ensure an equivalent distribution of the LD50 values and the different hazard categories between the training and the evaluation sets without supervised sampling of the chemicals based on structures (Figure 1A). The sources of the chemical structures were also kept equivalent between the two sets, with chemical structures obtained from DSSTox, being the highest quality, representing over 75% of each set (Figure 1B).

`O=S(=O)(O)c1ccc(Nc2nc(Nc3ccc(/C=C/c4ccc(Nc5nc(Nc6ccc(S(=O)(=O)O)cc6)nc(N(CCO)CCO)n5)cc4S(=O)(=O)O)c(S(=O)(=O)O)c3)nc(N(CCO)CCO)n2)cc1` came in with an LD50 of 5300 mg/kg. Regarding `c1ccc(OP(Oc2ccccc2)Oc2ccccc2)cc1`, the LD50 was 444 mg/kg. Regarding `CC(=O)C=C(C)C`, the LD50 is 300 mg/kg. On to `Nc1c(Cl)c(F)nc(OCC(=O)O)c1Cl`, for which the LD50 turned out to be 2400 mg/kg. `CCCCC(CC)COC(=O)c1ccccc1` (centres undefined) had a 50% lethal dose (LD50) of 2500 mg/kg.

`N=C(Nc1ccccc1)Nc1ccccc1`: the LD50 is 107 mg/kg. In turn, `CCCOCC(C)O` (centres undefined) gave an LD50 of 2490 mg/kg.

Regarding `CCCCCCCCCC[N+](C)(C)CCCCCCCCCC`, the LD50 worked out at 84 mg/kg. The value for `CC[N+](=O)[O-]` was 1080 mg/kg.

Compound `O=C1CCCN1` came in with an LD50 of 328 mg/kg. The result for `N#Cc1nn(-c2c(Cl)cc(C(F)(F)F)cc2Cl)c(N)c1S(=O)C(F)(F)F` (centres undefined) reads 92 mg/kg; that for `CCC(=O)O[C@](Cc1ccccc1)(c1ccccc1)[C@H](C)CN(C)C`, 135 mg/kg.

`CC(C)OC(=O)Cl` displayed an LD50 of 468 mg/kg. `CN=C=S` came in with an LD50 of 55 mg/kg. Turning to `Cn1cnc([N+](=O)[O-])c1Sc1ncnc2nc[nH]c12`, the LD50 was 400 mg/kg. As for `COCCOCCOCCOCCOC`, the LD50 stood at 3850 mg/kg.

Turning to `CC(C)C(C(=O)OC(C#N)c1cccc(Oc2ccccc2)c1)c1ccc(Cl)cc1` (centres undefined), the LD50 was determined as 135 mg/kg. As to `O=[N+]([O-])c1ccc(Cl)cc1`, the median lethal dose (LD50) was 460 mg/kg. With `O=C=Nc1cccc(C(F)(F)F)c1`, the 50% lethal dose (LD50) came to 975 mg/kg. As for `CCOC(=O)C1(c2ccccc2)CCN(C)CC1`, the LD50 is 162 mg/kg. The value for `CCCCCCCCCCCCCCN(C)C` was 1320 mg/kg; that for `Nc1ccc([N+](=O)[O-])cc1` was 750 mg/kg; that for `O=C=NC1CCCCC1` was 335 mg/kg. `CC(O)COc1ccccc1` (centres undefined) had an LD50 of 2830 mg/kg. This LD50 is about 8.4-fold higher than that of the compound before. For `O=C(Nc1ccc(Cl)c(Cl)c1)C1CC1`, the LD50 turned out to be 215 mg/kg. Consider `COCCOCCO`, for which the LD50 was determined as 5500 mg/kg. Against the preceding compound, the LD50 is about 26-fold higher. Regarding `ClC(Cl)(Cl)Cl`, the LD50 amounted to 2350 mg/kg. `CC(=O)Oc1ccc(C(c2ccc(OC(C)=O)cc2)c2ccccn2)cc1`: the LD50 was 4300 mg/kg. In turn, `O=C=Nc1ccccc1` had an LD50 of 800 mg/kg. Compound `Clc1cccc(Cl)c1` had an LD50 of 580 mg/kg. Regarding `COc1cc(CNC(=O)CCCC/C=C/C(C)C)ccc1O`, the LD50 is 148 mg/kg. The value for `CC1(C)C(=O)N(Br)C(=O)N1Cl` was 485 mg/kg; that for `CCCCCCCCCCCCCCCCCCN(C)C` was 2120 mg/kg. `C=CNC=O` showed an LD50 of 1000 mg/kg. The result for `CO[C@H]1/C=C/O[C@@]2(C)Oc3c(C)c(O)c4c(O)c(c(/C=N/N5CCN(C)CC5)c(O)c4c3C2=O)NC(=O)/C(C)=C\C=C\[C@H](C)[C@H](O)[C@@H](C)[C@@H](O)[C@@H](C)[C@H](OC(C)=O)[C@@H]1C` reads 900 mg/kg. Consider `O=C=NCc1cccc(CN=C=O)c1`, for which the 50% lethal dose (LD50) stood at 3200 mg/kg. The result for `O=CC=O` reads 481 mg/kg; that for `O=C(O)c1ccc(C(=O)O)cc1`, 1960 mg/kg. The value for `ClC1=C(Cl)C2(Cl)C3C(Cl)C=CC3C1(Cl)C2(Cl)Cl` (centres undefined) was 40 mg/kg. `Oc1ccc(Cl)cc1Cc1cc(Cl)ccc1O` displayed an LD50 of 1510 mg/kg. Against the preceding compound, the LD50 is about 38-fold higher. Consider `CCOC(=O)CCl`, for which the LD50 is 50 mg/kg. `CCCCCCCO` displayed an LD50 of 500 mg/kg.

`O=C1CCN(c2ccccc2)N1`: the 50% lethal dose (LD50) is 200 mg/kg. For `O=[N+]([O-])/N=C1\NCCN1Cc1ccc(Cl)nc1`, the LD50 turned out to be 410 mg/kg. This LD50 lies about 2-fold higher than the previous one.

For `O=c1[nH]c(=O)n(Cl)c(=O)n1Cl`, the LD50 was 1170 mg/kg and 1420 mg/kg.

With `COP(=S)(OC)SCc1nc(N)nc(N)n1`, the median lethal dose (LD50) came to 890 mg/kg. The value for `CCNCC` was 540 mg/kg; that for `CCC1CO1` (centres undefined) was 500 mg/kg. The value for `CC1=C(C(=O)Nc2ccccc2)SCCO1` was 430 mg/kg; that for `OCCCl` was 58 mg/kg; that for `C=C(C)C(=O)OCCCC` was 16000 mg/kg. Turning to `CCCCC(Oc1ccc([N+](=O)[O-])cc1C=O)C(=O)O` (centres undefined), the median lethal dose (LD50) is 500 mg/kg. The value for `COP(=S)(OC)Oc1ccc([N+](=O)[O-])cc1Cl` was 284 mg/kg; that for `COCCCNc1nc(NCCCOC)nc(SC)n1` was 1400 mg/kg; that for `O=C1OC(O)C(C(Cl)Cl)=C1Cl` (centres undefined) was 128 mg/kg.

`CC1=C(C)S(=O)(=O)CCS1(=O)=O` displayed an LD50 of 500 mg/kg. This LD50 is about 3.9-fold higher than that of the compound before.

Take `O=C(O)C1CCC(C(=O)O)CC1` (centres undefined): the LD50 worked out at 1900 mg/kg. The compound `O=S(=O)(C(Cl)(Cl)Cl)C(Cl)(Cl)Cl` yielded an LD50 of 535 mg/kg. The value for `CCNc1nc(Cl)nc(NC(C)(C)C#N)n1` was 149 mg/kg.

As usually defined, the LD50 is the dose at which mortality reaches 50%. Higher therefore signals a less toxic substance.
